Experiments:
Format in all cases: in vivo
[1] = system: Alopecurus myosuroides (ALOMY); assay: B2 Post-emergence herbicidal activity; parameters: key: 5=total damage to plant; 0=no damage to plant; details: post-emergence application, evaluated after 13 days
Procedure: (§1) Seeds of a variety of test species were sown in standard soil in pots: Triticum aestivium (TRZAW), Avena fatua (AVEFA), Alopecurus myosuroides (ALOMY), Echinochloa crus-galli (ECHCG), Lolium perenne (LOLPE), Zea Mays (ZEAMX), Abutilon theophrasti (ABUTH), Amaranthus retroflexus (AMARE) and Setaria fabenri (SETFA). After 8 days cultivation (post-emergence) under controlled conditions in a glasshouse (at 24/16° C., day/night; 14 hours light; 65% humidity), the plants were sprayed with an aqueous spray solution derived from the formulation of the technical active ingredient in acetone I water (50:50) solution containing 0.5% Tween 20 (polyoxyethelyene sorbitan monolaurate, CAS RN 9005-64-5). The test plants were then grown in a glasshouse under controlled conditions (at 24/16° C., day/night; 14 hours light; 65% humidity) and watered twice daily. After 13 days, the test was evaluated (5=total damage to plant; 0=no damage to plant).

[2] = system: Triticum aestivium (TRZAW); assay: B2 Post-emergence herbicidal activity; parameters: key: 5=total damage to plant; 0=no damage to plant; details: post-emergence application, evaluated after 13 days
Procedure: as §1

[3] = system: Setaria fabenri (SETFA); assay: B2 Post-emergence herbicidal activity; parameters: key: 5=total damage to plant; 0=no damage to plant; details: post-emergence application, evaluated after 13 days
Procedure: as §1

[4] = system: Lolium perenne (LOLPE); assay: B1 Pre-emergence herbicidal activity; parameters: key to Pre-emergence herbicidal activity, LOLPE (damage score 0-5): 5=total damage to plant; 0=no damage to plant; details: pre-emergence application, evaluated after 13 days
Procedure: as §1, with “fabenr” for “fabenri”, “After” for “After 8 days”, “for one day (pre-emergence)” for “(post-emergence)”

[5] = system: Setaria fabenr (SETFA); assay: B1 Pre-emergence herbicidal activity; parameters: key to Pre-emergence herbicidal activity, SETFA (damage score 0-5): 5=total damage to plant; 0=no damage to plant; details: pre-emergence application, evaluated after 13 days
Procedure: as §1, with “fabenr” for “fabenri”, “After” for “After 8 days”, “for one day (pre-emergence)” for “(post-emergence)”

[6] = system: Echinochloa crus-galli (ECHCG); assay: B1 Pre-emergence herbicidal activity; parameters: key to Pre-emergence herbicidal activity, ECHCG (damage score 0-5): 5=total damage to plant; 0=no damage to plant; details: pre-emergence application, evaluated after 13 days
Procedure: as §1, with “fabenr” for “fabenri”, “After” for “After 8 days”, “for one day (pre-emergence)” for “(post-emergence)”

[7] = system: Echinochloa crus-galli (ECHCG); assay: B2 Post-emergence herbicidal activity; details: post-emergence application, evaluated after 13 days
Procedure: as §1

[8] = system: Alopecurus myosuroides (ALOMY); assay: B1 Pre-emergence herbicidal activity; parameters: key: 5=total damage to plant; 0=no damage to plant; details: pre-emergence application, evaluated after 13 days
Procedure: as §1, with “fabenr” for “fabenri”, “After” for “After 8 days”, “for one day (pre-emergence)” for “(post-emergence)”

[9] = system: Triticum aestivium (TRZAW); assay: B1 Pre-emergence herbicidal activity; parameters: key: 5=total damage to plant; 0=no damage to plant; details: pre-emergence application, evaluated after 13 days
Procedure: as §1, with “fabenr” for “fabenri”, “After” for “After 8 days”, “for one day (pre-emergence)” for “(post-emergence)”

[10] = system: Avena fatua (AVEFA); assay: B1 Pre-emergence herbicidal activity; parameters: key: 5=total damage to plant; 0=no damage to plant; details: pre-emergence application, evaluated after 13 days
Procedure: as §1, with “fabenr” for “fabenri”, “After” for “After 8 days”, “for one day (pre-emergence)” for “(post-emergence)”

| SMILES | Post-emergence herbicidal activity, ALOMY (damage score 0-5) ([1]; rate 1000 g/ha) | Post-emergence herbicidal activity, TRAZW (damage score 0-5) ([2]; rate 1000 g/ha) | Post-emergence herbicidal activity, SETFA (damage score 0-5) ([3]; rate 1000 g/ha) | Pre-emergence herbicidal activity, LOLPE (damage score 0-5) ([4]; rate 1000 g/ha) | Pre-emergence herbicidal activity, SETFA (damage score 0-5) ([5]; rate 1000 g/ha) | Pre-emergence herbicidal activity, ECHCG (damage score 0-5) ([6]; rate 1000 g/ha) | Post-emergence herbicidal activity, ECHCG (damage score 0-5) ([7]; rate 1000 g/ha) | Pre-emergence herbicidal activity, ALOMY (damage score 0-5) ([8]; rate 1000 g/ha) | Pre-emergence herbicidal activity, TRAZW (damage score 0-5) ([9]; rate 1000 g/ha) | Pre-emergence herbicidal activity, AVEFA (damage score 0-5) ([10]; rate 1000 g/ha) | Post-emergence herbicidal activity, ALOMY (damage score 0-5) ([1]; rate 250 g/ha) | Post-emergence herbicidal activity, TRAZW (damage score 0-5) ([2]; rate 250 g/ha) | Post-emergence herbicidal activity, SETFA (damage score 0-5) ([3]; rate 250 g/ha) | Pre-emergence herbicidal activity, LOLPE (damage score 0-5) ([4]; rate 250 g/ha) | Pre-emergence herbicidal activity, SETFA (damage score 0-5) ([5]; rate 250 g/ha) | Pre-emergence herbicidal activity, ECHCG (damage score 0-5) ([6]; rate 250 g/ha) | Post-emergence herbicidal activity, ECHCG (damage score 0-5) ([7]; rate 250 g/ha) | Pre-emergence herbicidal activity, ALOMY (damage score 0-5) ([8]; rate 250 g/ha) | Pre-emergence herbicidal activity, TRAZW (damage score 0-5) ([9]; rate 250 g/ha) | Pre-emergence herbicidal activity, AVEFA (damage score 0-5) ([10]; rate 250 g/ha) |
| --- | --- | --- | --- | --- | --- | --- | --- | --- | --- | --- | --- | --- | --- | --- | --- | --- | --- | --- | --- | --- |
| O=C(c1ccccc1)N(Cc1ccc(Cl)cc1)c1ccc(-c2cncc(F)c2)nc1C(F)(F)F [Compound C77] | 0 | 0 | 2 | 0 | 1 | 0 | 1 | 0 | 0 | 0 | – | – | – | – | – | – | – | – | – | – |
| CCC(=O)N(CC1CC1)c1ccc(-c2cncc(F)c2)nc1C(F)(F)F [Compound C108] | 0 | 0 | 4 | 1 | 5 | 2 | 3 | 0 | 0 | 1 | – | – | – | – | – | – | – | – | – | – |
| O=C(c1ccccc1)N(Cc1cnc(Cl)s1)c1ccc(-c2cncc(F)c2)nc1C(F)(F)F [Compound C78] | 0 | 0 | 3 | 0 | 2 | 1 | 1 | 0 | 0 | 0 | – | – | – | – | – | – | – | – | – | – |
| CCC(=O)N(CC=C(C)C)c1ccc(-c2cncc(F)c2)nc1C(F)(F)F [Compound C73] | 0 | 0 | 5 | 0 | 5 | 4 | 4 | 0 | 0 | 2 | – | – | – | – | – | – | – | – | – | – |
| COCC(=O)N(CC=C(C)C)c1ccc(-c2cncc(F)c2)nc1C(F)(F)F [Compound C106] | 0 | 0 | 5 | 1 | 4 | 3 | 4 | 0 | 0 | 2 | – | – | – | – | – | – | – | – | – | – |
| CC(C)C(=O)N(CC1CC1)c1ccc(-c2cncc(F)c2)nc1C(F)(F)F [Compound C87] | 0 | 0 | 4 | 0 | 5 | 2 | 3 | 0 | 0 | 0 | – | – | – | – | – | – | – | – | – | – |
| CCC(=O)N(Cc1ccc(Cl)cc1)c1ccc(-c2cncc(F)c2)nc1C(F)(F)F [Compound C101] | 0 | 0 | 2 | 0 | 1 | 1 | 2 | 0 | 0 | 1 | – | – | – | – | – | – | – | – | – | – |
| CSCCN(C(=O)c1ccccc1)c1ccc(-c2cncc(F)c2)nc1C(F)(F)F [Compound C104] | – | – | – | – | – | – | – | – | – | – | 0 | 0 | 2 | 0 | 3 | 0 | 1 | 0 | 0 | 0 |
| CCC(=O)N(CCSC)c1ccc(-c2cncc(F)c2)nc1C(F)(F)F [Compound C98] | 0 | 0 | 0 | 1 | 3 | 1 | 1 | 0 | 0 | 0 | – | – | – | – | – | – | – | – | – | – |
| CCC(=O)N(CC(=O)N(C)C)c1ccc(-c2cncc(F)c2)nc1C(F)(F)F [Compound C71] | 0 | 0 | 5 | 1 | 5 | 4 | 4 | 0 | 1 | 1 | – | – | – | – | – | – | – | – | – | – |
| CCN(CC)CCCN(C(=O)C(C)C)c1ccc(-c2cncc(F)c2)nc1C(F)(F)F [Compound C69] | 0 | 0 | 4 | 0 | 5 | 3 | 3 | 0 | 0 | 1 | – | – | – | – | – | – | – | – | – | – |
| COCC(=O)N(Cc1cnc(Cl)s1)c1ccc(-c2cncc(F)c2)nc1C(F)(F)F [Compound C83] | 0 | 0 | 3 | 1 | 4 | 2 | 2 | 0 | 0 | 1 | – | – | – | – | – | – | – | – | – | – |

— patent US11230538B2, “Herbicides” (SYNGENTA PARTICIPATIONS AG, priority 2016, dated 2022)
